# In paper PMC10831786 (Virus Research, 2024):
# What was measured:
# [1] = system: protein synthesis in Vero E6 cells; assay: Puromycin pulse labeling, protein synthesis in cultured Vero E6 cells; assay type: cell-based, African green monkey
# Procedure: Vero E6 cells were seeded at 30,000 cells per cm^2 in 6-well plates. […] Control experiments were conducted in medium alone and medium containing cycloheximide or DMSO. After 12 min, cells were washed with 37° PBS and then allowed to recover in drug-free 2 % FBS-EMEM for 30 min. Cell pellets, collected by trypsinization and centrifugation for 5 min at 5 000 rpm at 4 °C, were re-suspended in ice-cold PBS and centrifugation was repeated. Collected cells were stored at −80 °C.
# Antibodies used were anti-puromycin monoclonal (TFS; MABE34), goat anti-mouse-HRP (TFS, Invitrogen; G21040), rabbit anti-β-actin (Cell Signaling, 4967S, lot 9) and HRP-conjugated goat-anti-rabbit (Cell Signaling, 7074S, lot 27). Protein extract and immunoblotting methods were done by standard methods reported here as Supplementary Information.
# Vero E6 cells were seeded at 30,000 cells per cm^2 in 6-well plates. […] Puromycin labelling protocols have been well established by other laboratories and a general review of the methods has been published^79. Control experiments were conducted in medium alone and medium containing cycloheximide or DMSO. Following incubation with puromycin for 12 min, the medium was quickly removed and cells were washed with warm PBS and then allowed to recover in drug-free 2% FBS-EMEM for 30 min. Cell pellets, collected by trypsinization and centrifugation for 5 min at 5 000 rpm at 4°C, were re-suspended in ice-cold PBS and the centrifugation was repeated. Collected cells were stored at -80°C until subjected to the protein preparation as noted below.
# Defrosted cell pellets were re-suspended in 120 µl of RIPA (radio-immunoprecipitation) buffer (Sigma; R0278) containing 7 µl of protease inhibitors (Sigma; P8340). Samples were incubated on ice for 40 min with occasional gentle mixing. Cell debris was removed by a 20 min centrifugation at 16,000 g at 4°C and supernatants were stored at -80°C. Protein was measured by the Pierce^TM bicinchoninic acid (BCA) assay (Thermo Fisher Scientific [TFS], MA, USA; 23250), using bovine serum albumin as a standard, according to protocols recommended by the manufacturer.
# For immunoblotting, 10 µg of protein was combined with Laemmli buffer containing 10% β-mercaptoethanol, heated at 95°C for 5 min and loaded on 4-20% Mini-PROTEAN® TGX™ precast protein gels. Samples were resolved by electrophoresis in Tris-Gly-SDS buffer and transferred to nitrocellulose membranes. Transfer was conducted in Tris-Gly buffer containing 20% methanol at 4-6 V/cm^2 for one hour. Membranes were blocked in 10 mM sodium phosphate buffer containing 150 mM NaCl (pH 7.8), 5% milk and 0.1% TWEEN20 (PBST) at room temperature for at least one hour, and then incubated overnight with primary anti-puromycin antibodies (TFS; MABE343 mouse monoclonal antibodies clone 12D10; 1:12,500) at 4°C. Membranes were washed for five minutes three times in PBST and incubated with secondary goat anti-mouse horseradish peroxidase (HRP) -conjugated antibodies (TFS, Invitrogen; G21040; 1:25,000) for 90 min. After three more rounds of washing as above, membranes were incubated with an HRP substrate (TFS; 34077) for one minute and chemoluminescence was visualized by exposing membranes to film for 1, 2, 5, 10 and 30 min.
# For β-actin staining, the same membranes used for puromycin immunostaining were washed four times, 5 min each, in 20 mM Tris-buffered saline containing 500 mM sodium chloride (pH 7.5) and 0.1% TWEEN20 (TBST) and stripped by two rounds of 20 and 10 min washes at 50°C in glycine buffer (pH 2.2) containing 0.1 % SDS (W/V) and 1% TWEEN20. Membranes were then washed at room temperature with PBS (3x10 min) and PBST (2x5min). Blocking, primary (1:4,000) and secondary (1:5,000) antibody staining was conducted as above. Primary rabbit anti-β-actin antibodies were obtained from Cell Signaling (4967S, lot 9) and secondary HRP-conjugated goat-anti-rabbit antibodies were from the same company (7074S, lot 27). […]
# [2] = target: protein synthesis in rabbit reticulocyte lysate; assay: Inhibition of protein synthesis in rabbit reticulocyte lysates (luciferase mRNA translation); assay type: biochemical
# Procedure: The TnT® Quick Coupled Transcription/Translation System from Promega (WI, USA; L1170) was used to evaluate inhibitory effects of ipecac alkaloids and cycloheximide on protein synthesis. Assay conditions were employed as recommended by the manufacturer. Briefly, reactions (20 μl) contained 80 % TNT Quick master mix, 20 µM methionine, 40 ng/µL luciferase RNA (Promega; L4561), and test chemicals. Samples were incubated at 30 °C for 90 min and diluted 10-fold with PBS. An aliquot (2 μl) was mixed with 20 μl of luciferase assay reagent (Promega; E1500) and luminescence was measured with a Turner Designs luminometer (model TD-20/20).
# [3] = MTS assay, growth inhibition and toxicity in non-infected Vero E6 cells; assay type: cell-based, African green monkey; conditions: African green monkey, non-infected Vero E6 cells, MTS, 72 h; read-out: Fifty percent effect (CC50) in non-infected Vero E6
# Procedure: Detailed methods are provided in Supplementary Information.
# Vero E6 and BEC-hACE2 cells were grown to 70-80% density in their maintenance media and exposed to various concentrations of ipecac alkaloids (0.0125 – 200 µM) under standard culture conditions for 48-72 h and 24 h, respectively. Controls with varying amounts of DMSO and no DMSO were included also. Vero E6 cells were incubated with drugs in 2% FBS-EMEM, while BEC-HACE2 cells were grown and treated in complete PCS-300-03 medium with supplements. Similar treatments were also conducted using fully confluent non-growing BEC-hACE2 cells. At the end of the exposure period, MTS reagent (Promega G3580) was added at 1/5th of the medium volume and color was allowed to develop by incubation of the plates for an hour in a cell culture incubator. To stop reactions, SDS was added to a final concentration of 2% and optical density of samples was measured at 450 or 490 nm, depending on the model of spectrophotometer (PharmaciaBiotech, NJ, USA; UV spectrophotometer, model Ultrospec2000) or plate reader (Molecular Devices, CA, USA; model Filter Max F5 Multi-mode microplate reader) available at the time of experiment.
# HCoV-OC43 = assay: Antiviral activity against HCoV-OC43 in Vero E6 cells (RT-qPCR of N-gene); assay type: cell-based
# Procedure: Vero E6 cells (∼5 × 10^4 cells/cm^2 in 24-well plates) were infected with […] at MOI of 20 genomes per cell in 2 % FBS-EMEM at 33 °C, 5 % CO2 with gently mixing for 2 h. Infection medium was removed, cells were washed with fresh medium followed by the addition of compounds at indicated concentrations in 2 % FBS-EMEM. After 72 h, 100 µL of medium was collected and stored at −80 °C for viral RNA isolation and RT-qPCR analysis as detailed below. Drugs were added to the medium prior to and after viral absorption for comparison.
# HCoV-OC43 RNA was isolated from 100 µL of medium using Quick-RNA Viral Kit-DX (Zymo Research, CA, USA; R1035). The relative amount of viral genomic RNA was determined with Luna Universal One-Step RT-qPCR Kit (New England Biolabs, MA, USA; E3005). […]
# RT-qPCR cycles were set for 20 min at 55 °C, 1 min at 95 °C followed by 45 cycles of 95 °C for 10 s, 48 °C for 30 s and 60 °C for 1 min. The threshold cycle (Ct) for each sample was determined using the Opticon Monitor 3 Program (BioRad). Drug effects on viral propagation were evaluated assuming that a difference of one cycle corresponds to a two-fold difference in the number of copies of viral RNA. Ct values obtained for drug-free samples were considered as 100 % viral propagation.
Compound,"IC50 ([1]; Chlorocebus sabaeus, Vero C1008, Vero E6 cells, 1 h exposure, puromycin labeling, read-out: 50 % inhibitory activities, protein synthesis)","IC50 ([2]; luciferase mRNA, 30 °C, 90 min)","Protein synthesis,% ([1]; Vero E6, 0.1 μM)","Protein synthesis, puromycilation signal ([1]; Vero E6, >1 μM)",Concentration above which inhibition of puromycilation is not sustained ([1]; Vero E6 cells),"Efficiency as protein synthesis inhibitors ([1]; cultured cells, puromycin labeling)",CC50 at 72 h [3],Inhibitory effects on translation in rabbit reticulocyte lysate ([2]; concentration range 0.1 - 100 μM),"IC50, protein synthesis inhibition in rabbit reticulocyte lysate ([2]; luciferase mRNA, 30 °C, 90 min)","IC50 (HCoV-OC43; Betacoronavirus 1, OC43, Vero C1008, Vero E6, drug added after viral absorption, 72 hpi, read-out: Antiviral IC50)","Selectivity index, (SI) CC50/IC50 (HCoV-OC43; HCoV-OC43, Vero E6, 72 hpi)"
"C[C@@H]1C[C@@H]([C@H](O)CC2CC(=O)NC(=O)C2)C(=O)[C@@H](C)C1 [CHX, Cycloheximide, reference compound]",~30 nM,31 nM,–,–,–,–,–,–,–,–,–
"CCC1=C(C[C@@H]2NCCc3cc(OC)c(OC)cc32)C[C@@H]2c3cc(OC)c(OC)cc3CCN2C1 [DHE1, 4H-Benzo[a]quinolizine, 3-ethyl-1,6,7,11b-tetrahydro-9,10-dimethoxy-2-[[(1S)-1,2,3,4-tetrahydro-6,7-dimethoxy-1-isoquinolinyl]methyl]-, (11bR)-]",–,–,0%,signal increase,> 1 µM,inefficient as protein synthesis inhibitors,193 ± 63.6 µM,no inhibitory effects,Not active,1030 ± 446 nM,188
